Experimental findings from patent US11180509B2, “Thiazolidone spiro pyrimidine trione compound, preparation method therefor and uses thereof” (SHANGHAI INSTITUTE OF MATERIA MEDICA, CHINESE ACADEMY OF …, priority 2017, dated 2021) are described below.

The subject of data set [1] is methicillin-resistant Staphylococcus epidermidis or MRSE. The data set can be described thus: In vitro antibacterial activity, MIC by micro broth dilution. Format: cell-based. Conditions: read-out: MIC MRSE. An excerpt:
(§1) The following strains isolated in clinic were used in antibacterial activity screening in vitro: five strains of methicillin-resistant Staphylococcus aureus or MRSA, five strains of methicillin-sensitive Staphylococcus aureus or MSSA, five strains of methicillin-resistant Staphylococcus epidermidis or MRSE, five strains of methicillin-sensitive Staphylococcus epidermidis or MSSE, three strains of penicillin-resistant Streptococcus pneumoniae or PRSP, and three strains of Streptococcus pyogenes.
(§2) The above strains were clinically isolated pathogenic bacteria collected in Sichuan and Beijing in December 2015. They were identified by the collection unit via a VITEK-60 automatic microbiological identification instrument, and then re-identified by conventional methods in the laboratory. Before the experiment, each strain was purified by a single colony on an agar plate, and the cells freshly cultured at 37° C. overnight were appropriately diluted for the experiment. Quality control strain was Staphylococcus aureus ATCC25923 purchased from the Clinical Testing Center of the Ministry of Health of the People's Republic of China.
(§3) Medium: MH (Mueller-Hinton, hydrolyzed casein) broth (OXOID);
(§4) Culture condition: Incubate at 35-37° C. for 16-18 h.
(§5) The MIC value of each test sample for the tested strain was determined by micro broth dilution method recommended by Performance Standards for Antimicrobial Susceptibility Testing (Twenty-Third Informational Supplement; M02-A11, M07-A9 and M11-A8, 2013) of American Clinical and Laboratory Standards Institute (CLSI).
(§6) After diluting each test sample to different concentrations in MH broth, 100 μl of each sample solution at different concentrations was pipetted into a sterilized 96-well polystyrene plate. In the first to twelfth wells, the drug solution was added, and the final drug concentrations in each well were 64, 32, 16, 8, 4, 2, 1, 0.5, 0.25, 0.125, 0.06, and 0.03 mg/L. The well without drug and without bacteria was set as blank control well. The well with bacteria and without drug was set as a bacterial growth control well.
(§7) The test bacterial solution was adjusted with physiological saline to a bacterial suspension equivalent to 0.5 Maisson turbidity standard, and diluted 1:100 with MH broth. The drug solution was added so that the final concentration of the bacterial solution was about 10^4 CFU/ml; then 100 μl of bacterial solution was pipetted into the above wells (the total volume in each well was 200 μl). The plate was sealed and placed in a 35-37° C. incubator for 18-20 h, and then the results were determined. […] When Streptococcus pneumoniae was tested, sterile defibrillated sheep blood was added into the Colombian broth culture medium at a final concentration of 5% and cultivation was conducted in a 5% CO2 and 35-37° C. incubator for 18-20 hours.
Background: Broth dilution looks for growth in wells or tubes with falling amounts of substance.

Data set [2] concerns methicillin-sensitive Staphylococcus epidermidis or MSSE. The description is as above. Format: cell-based. Particulars: read-out: MIC MSSE.
Description: as §1, §2, §3, §4, §5, §6, §7

The test system of data set [3] is penicillin-resistant Streptococcus pneumoniae or PRSP. Described as above. Particulars: read-out: MIC PRSP. Format: cell-based.
Description: as §1, §2, §3, §4, §5, §6, §7

The test system of data set [4] is methicillin-sensitive Staphylococcus aureus or MSSA. The description is as above. Format: cell-based. Conditions: read-out: MIC MSSA.
Description: as §1, §2, §3, §4, §5, §6, §7

A further data set deals with Streptococcus pyogenes. Described as above. Format: cell-based. Conditions: read-out: MIC Spy.
Description: as §1, §2, §3, §4, §5, §6, §7

For data set [5], the system named is methicillin-resistant Staphylococcus aureus or MRSA. The data set is described as above. Format: cell-based. Particulars: read-out: MIC MRSA.
Description: as §1, §2, §3, §4, §5, §6, §7

Data set [6] has as its system MRSA, MSSA, MRSE, MSSE, PRSP, and Spy. The data set can be described thus: In vitro antibacterial activity over the whole strain panel, compared with AZD0914. Format: cell-based. Particulars: against MRSA.
Description: as §1, §2, §5, §6, §7

Data set [7] can be described thus: In vivo pharmacokinetics test in mice (oral). Also on record: species or system CD-1 mice. Particulars: PO 10.0 mg/kg. As to the method: Healthy female CD-1 mice were randomly divided into five groups and each group comprised three mice. The tested compound was administered orally.
0.030 mL of blood was taken from the orbit of each animal each time and anticoagulated with EDTAK2. The collection time was as follows. PO group: 15 m, 30 mi, 1 h, 2 h, 4 h, 6 h, 8 h, and 24 h after administration of the test compound. The collected blood samples were placed on ice and centrifuged within 30 minutes to separate the plasma (centrifugation conditions: 5000 rpm, 10 minutes, room temperature). The samples were stored at −80° C. before analysis.

Data set [8] is described as follows: In vivo pharmacokinetic test in rats (PO and IV). Particulars: SD rats. As to the method: Nine SD rats were randomly divided into three groups and each group comprised three […].
0.100 mL of blood was taken from the orbit of each animal each time and anticoagulated with EDTAK2. The collection time was as follows. (1) PO group (10.0 mg/kg): 15 min, 30 min, 1 h, 2 h, 4 h, 6 h, 8 h, 24 h after administration of the test compound; PO group (100 mg/kg): 15 min, 30 min 1 h, 2 h, 4 h, 6 h, 8 h, 10 h, 24 h, 36 h, 48 h; (2) IV group: 5 min, 15 min, 30 min, 1 h, 2 h, 4 h, 6 h, 8 h, 24 h after administration of the test compound. The collected blood samples were placed on ice and centrifuged within 30 minutes to separate the plasma (centrifugation conditions: 5000 rpm, 10 minutes, 4° C.). The samples were stored at −80° C. before analysis.

The test system of data set [9] is Staphylococcus aureus MRSA15-3. The data set can be described thus: In vitro antibacterial activity against the in vivo test strain (MIC). Particulars: MRSA153. It counts as cell-based. As to the method: as §5, §6
The test bacterial solution was adjusted with physiological saline to a bacterial suspension equivalent to 0.5 Maisson turbidity standard, and diluted 1:100 with MH broth. The drug solution was added so that the final concentration of the bacterial solution was about 10^4 CFU/ml; then 100 μl of bacterial solution was pipetted into the above wells (the total volume in each well was 200 μl). The plate was sealed and placed in a 35-37° C. incubator for 18-20 h, and then the results were determined. […]

Data set [10] concerns S. aureus MRSA15-3 infected mice. The data set can be described thus: In vivo protection test, systemic infection model (ED50). Also on record: species or system Kunming mice. Particulars: Staphylococcus aureus.

The structures appear in SMILES notation. In brackets after ≈: the same amount, converted by molar mass. Read-outs that look alike come from different tables or passages of the source.

In turn, `C[C@@H]1CN2c3c(cc4c(N5CCSC5=O)noc4c3F)CC3(C(=O)NC(=O)NC3=O)[C@H]2[C@H](C)O1` [Compound 1, (2R,4S,4aS)-11-fluoro-2,4-dimethyl-8-(2-oxothiazolin-3-yl)-1,2,4,4a-tetrahydro-2′H,6H-spiro[isoxazole[4,5-g][1,4]oxazine[4,3-a]quinoline-5,5′-pyrimidine]-2′,4′,6′(1′H,3′H)-trione] registered a melting point of 225 to 226 °C. Also, the MIC in data set [1] is less than 0.03 µg/mL. The minimal inhibitory concentration (MIC) in [2] is less than 0.03 µg/mL. Also, the MIC in [3] is less than 0.03 µg/mL. Besides, the MIC in data set [4] is less than 0.03 µg/mL. Also, the minimal inhibitory concentration (MIC) in the data set with Streptococcus pyogenes is less than 0.03 µg/mL. For the same molecule, in [5], the minimal inhibitory concentration (MIC) is 0.03 to 0.06 µg/mL (≈ 0.0613 to 0.123 µM). Moreover, in [6], the “in vitro antibacterial activity relative to AZD0914” value is listed as “about 8 times”. In data set [7] (multiple of the AZD0914 value), the “AUC0→t relative to AZD0914” value was approximately 10 times) and the “Cmax relative to AZD0914” value is on record as approximately 8 times). Besides, in data set [7] (plasma), the AUC0→t was found to be 7334 ± 943 ng·h/mL, the Cmax came out at 1548 ± 52 ng/mL, the MRT was 3.70 ± 0.95 h and the time to peak (Tmax) came to 1.33 ± 0.577 h. In data set [7] (plasma), this molecule came in with a t1/2 of 2.90 ± 1.72 h.

Turning to `C[C@@H]1CN2c3c(cc4c(N5C[C@H](C)SC5=O)noc4c3F)CC3(C(=O)NC(=O)NC3=O)[C@H]2[C@H](C)O1` [Compound 2, (2R,4S,4aS)-11-fluoro-2,4-dimethyl-8-((S)-5-methyl-2-oxothiazolin-3-yl)-1,2,4,4a-tetrahydro-2′H,6H-spiro[isoxazole[4,5-g][1,4]oxazine[4,3-a]quinoline-5,5′-pyrimidine]-2′,4′,6′(1′H,3′H)-trione], the “AUC0-t (IV)” value in data set [8] (IV 10 mg/kg) was found to be 89577 ± 9072 ng·h/mL. The “Cl (IV)” value in data set [8] (IV 10 mg/kg) stood at 1.82 ± 0.214 mL/min/kg. Besides, the “T1/2 (IV)” value in [8] (IV 10 mg/kg) is 4.93 ± 0.844 h. Also, in data set [8] (IV 10 mg/kg), the “Vdss (IV)” value is 0.675 ± 0.0578 L/kg. For the same molecule, the “% F” value in data set [8] (PO 10 mg/kg) is listed as 52.0 ± 8.41%. In addition, the “AUC0-t (PO)” value in [8] (PO 10 mg/kg) turned out to be 46598 ± 7538 ng·h/mL. Also, the “Cmax (PO)” value in data set [8] (PO 10 mg/kg) turned out to be 4430 ± 1250 ng/mL; in data set [8] (PO 100 mg/kg), 32069 ± 7934 ng/mL. Also, the “T1/2 (PO)” value in [8] (PO 10 mg/kg) came out at 4.38 ± 1.21 h. Also, the mean residence time MRT in data set [8] (rat, plasma, IV 10 mg/kg, read-out: MRT (IV)) is 6.22 ± 0.601 h; in data set [8] (rat, plasma, PO 10 mg/kg, read-out: MRT (PO)) it was 7.54 ± 0.773 h; in [8] (rat, plasma, PO 100 mg/kg, read-out: MRT (PO)), 11.1 ± 2.11 h; in data set [7] (female, CD-1, mouse, plasma, read-out: MRT) it was 8.94 ± 2.15 h. Moreover, the time to peak (Tmax) in data set [8] (rat, plasma, PO 10 mg/kg) was 5.33 ± 1.15 h; in data set [8] (rat, plasma, PO 100 mg/kg), 5.33 ± 1.15 h; in data set [7] (female, CD-1, mouse, plasma, read-out: Tmax) it was 2.67 ± 1.15 h. Besides, the AUC(0-t) in [8] (rat, plasma, PO 100 mg/kg) was 509000 ± 65900 ng·h/mL; in [7] (female, CD-1, mouse, plasma) it was 24200 ± 5640 ng·h/mL. In addition, in [8] (rat, plasma, PO 100 mg/kg), the bioavailability came out at 55.1 ± 7.1%. Moreover, the half-life is 4.19 ± 0.23 h in data set [8] (rat, plasma, PO 100 mg/kg, read-out: T1/2 (PO) (converted)) and 6.2 ± 1.4 h in [7] (female, CD-1, mouse, plasma). Moreover, the MIC in data set [1] is less than 0.03 µg/mL; in data set [2], less than 0.03 µg/mL; in [3], less than 0.03 µg/mL; in [4], 0.03 to 0.06 µg/mL (≈ 0.0596 to 0.119 µM); with Streptococcus pyogenes, less than 0.03 µg/mL; in [5], 0.03 to 0.25 µg/mL (≈ 0.0596 to 0.497 µM). In data set [9], this molecule gave a minimal inhibitory concentration (MIC) of less than 0.03 µg/mL. Besides, the Cmax in data set [7] (female, CD-1, mouse, plasma, read-out: Cmax) came to 2580 ± 713 ng/mL. The ED50 in data set [10] is 2.54 mg/kg; in [10] (po, read-out: ED50 95% confidence limit) it was 0.11 to 3.71 mg/kg.

As a reminder, the melting point is the temperature of the solid-liquid transition. The MIC is the lowest concentration that inhibits growth of the organism. For orientation: Cmax means the highest concentration seen after dosing. A word on the MRT: it is the average time that molecules of a dose stay in the body. For orientation: Tmax means the time from dosing to the highest level. In general, AUC(0-t) refers to the area under the concentration-time curve up to a stated or last time point. As usually defined, the bioavailability is the share of a dose that reaches the circulation, judged against a reference dose that is usually intravenous. The ED50 is the midpoint of the dose-response relation.
